Test results as given in patent US8859543B2, “Imidazo[1,2-a]pyrazine derivatives and their use for the prevention or treatment of neurological, psychiatric and metabolic disorders and diseases” (Janssen Pharmaceutica NV, priority 2010, dated 2014).
Where two headings read alike, the source gives them in different places.

Experiments:
[1] = target: T1, Rat recombinant PDE10A (rPDE10A2) (Rattus norvegicus, UniProt Q9QYJ6); experiment: In vitro assay PDE10A (SPA, 3H-cAMP); type: biochemical; conditions: pIC50 corresponds to the -log IC50 expressed in mol/L; for IC50: read-out: PDE10A2 pIC50 (converted)
T1 construct: made in house; host or cells: Sf9 insect cells, baculovirus
T1 sequence (Q9QYJ6 1-794): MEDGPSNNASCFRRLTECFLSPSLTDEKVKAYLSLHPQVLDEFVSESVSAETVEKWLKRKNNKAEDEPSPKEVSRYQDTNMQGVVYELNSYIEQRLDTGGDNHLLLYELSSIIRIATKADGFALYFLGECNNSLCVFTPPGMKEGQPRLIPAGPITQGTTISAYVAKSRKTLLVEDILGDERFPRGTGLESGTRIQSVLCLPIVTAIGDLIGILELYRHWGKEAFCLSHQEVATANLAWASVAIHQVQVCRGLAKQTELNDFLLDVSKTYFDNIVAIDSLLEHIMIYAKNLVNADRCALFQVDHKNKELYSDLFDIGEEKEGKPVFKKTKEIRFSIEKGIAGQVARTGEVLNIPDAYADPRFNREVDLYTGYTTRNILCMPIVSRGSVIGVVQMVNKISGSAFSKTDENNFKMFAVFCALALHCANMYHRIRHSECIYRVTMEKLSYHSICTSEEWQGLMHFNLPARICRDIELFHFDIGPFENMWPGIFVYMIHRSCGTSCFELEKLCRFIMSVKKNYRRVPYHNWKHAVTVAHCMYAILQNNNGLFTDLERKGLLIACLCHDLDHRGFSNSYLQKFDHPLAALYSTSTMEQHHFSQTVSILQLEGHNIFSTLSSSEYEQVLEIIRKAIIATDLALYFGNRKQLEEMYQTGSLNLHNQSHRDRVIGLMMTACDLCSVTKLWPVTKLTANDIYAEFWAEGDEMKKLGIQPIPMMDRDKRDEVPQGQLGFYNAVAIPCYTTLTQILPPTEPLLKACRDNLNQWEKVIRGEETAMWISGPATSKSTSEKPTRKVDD
Experimental: Rat recombinant PDE10A (rPDE10A2) was expressed in Sf9 cells using a recombinant rPDE10A baculovirus construct. Cells were harvested after 48 h of infection and the rPDE10A protein was purified by metal chelate chromatography on Ni-sepharose 6FF. Tested compounds were dissolved and diluted in 100% DMSO to a concentration 100 fold of the final concentration in the assay. Compound dilutions (0.4 μl) were added in 384 well plates to 20 μl of incubation buffer (50 mM Tris pH 7.8, 8.3 mM MgCl2, 1.7 mM EGTA). 10 μl of rPDE10A enzyme in incubation buffer was added and the reaction was started by addition of 10 μl substrate to a final concentration of 60 nM cAMP and 0.008 μCi ^3H-cAMP. The reaction was incubated for 60 min. at RT. […] After sedimentation of the beads during 30 min. the radioactivity was measured in a Perkin Elmer Topcount scintillation counter and results were expressed as cpm. For blank values the enzyme was omitted from the reaction and replaced by incubation buffer. Control values were obtained by addition of a final concentration of 1% DMSO instead of compound. The same assay principle is applied for the measurement of the affinity of the compound for other members of the PDE family with appropriate modifications in incubation buffer, substrate concentration, incubation time and stop solution.

[2] = system: apomorphine-induced stereotypy; experiment: Apomorphine-induced stereotypy in rats (APO); type: in vivo; conditions: Rattus norvegicus
Experimental: Apomorphine-Induced Stereotypy in Rats (APO)
Apomorphine (1.0 mg/kg, i.v.)-induced stereotypy (compulsive sniffing, licking, chewing) was scored every 5 min. over the first hour after injection of apomorphine, following a 1 hour interval pre-treatment with the test compound. The score system was: (3) pronounced, (2) moderate, (1) slight, and (O) absent.

[3] = not active at 2.5 or at 10 mg/kg, not further tested, read-out: APO ED50 (not active at threshold dose)

| Structure (SMILES) | IC50 [1] | ED50 ([2]; read-out: APO ED50) | ED50 [2, 3] | PDE10A2 pIC50 [1] | ED50 ([2]; po, * compound was not soluble and was tested orally as a suspension, read-out: APO ED50) |
| --- | --- | --- | --- | --- | --- |
| Cc1nc2c(N3CCOCC3)nccn2c1-c1cnn(Cc2cccnc2)c1 [compound 65] | 85.1 nM | 5 mg/kg | – | – | – |
| COC(C)(C)CCc1ccc(-c2c(C)nc3c(N4CCOCC4)nccn23)cn1 [compound 29, 3-[6-(3-Methoxy-3-methyl-butyl)-pyridin-3-yl]-2-methyl-8-morpholin-4-yl-imidazo[1,2-a]pyrazine] | 219 nM | 1.2 mg/kg | – | – | – |
| COCCCn1cc(-c2c(C)nc3c(N4CCOCC4)nccn23)cn1 [compound 68] | 87.1 nM | 3.1 mg/kg | – | – | – |
| Cc1nc2c(N3CCOCC3)nccn2c1-c1ccc(OCC2CC2)nc1 [compound 134] | 562 nM | ≤ 10 mg/kg | – | – | – |
| Cc1nc2c(N3CCOCC3)nccn2c1-c1cnn(CC2CC2)c1 [compound 62] | 79.4 nM | – | > 2.5 mg/kg | – | – |
| COC(C)(C)COc1ccc(-c2c(C)nc3c(N4CCOCC4)nccn23)cn1 [compound 3, 3-[6-(2-Methoxy-2-methyl-propoxy)-pyridin-3-yl]-2-methyl-8-morpholin-4-yl-imidazo[1,2-a]pyrazine] | 457 nM | 5 mg/kg | – | – | – |
| Cc1nc2c(N3CCOCC3)nccn2c1-c1cnn(Cc2ccc(Cl)cc2)c1 [compound 121] | 372 nM | – | > 2.5 mg/kg | – | – |
| COC[C@@H](C)n1cc(-c2c(C)nc3c(N4CCOCC4)nccn23)cn1 [compound 110] | 214 nM | 3.1 mg/kg | – | – | – |
| CCn1cc(-c2c(C)nc3c(N4CCOCC4)nccn23)cn1 [compound 38, 3-(1-Ethyl-1H-pyrazol-4-yl)-2-methyl-8-morpholin-4-yl-imidazo[1,2-a]pyrazine] | – | ≤ 10 mg/kg | – | 6.63 | – |
| Cc1nc2c(-c3ccncc3)nccn2c1-c1cnn(CCO)c1 [compound 138] | 724 nM | – | > 2.5 mg/kg | – | – |
| COC[C@H](C)n1cc(-c2c(C)nc3c(-c4ccncc4)nccn23)cn1 [compound 79] | 107 nM | 5 mg/kg | – | – | – |
| Cc1nc2c(N3CCOCC3)nccn2c1-c1ccnc(N2CCCC2)c1 [compound 99] | 151 nM | – | > 2.5 mg/kg | – | – |
| Cc1nc2c(N3CCOCC3)nccn2c1-c1cnn(Cc2ccncc2)c1 [compound 77] | – | ≤ 10 mg/kg | – | 6.99 | – |
| Cc1nc2c(N3CCOCC3)nccn2c1-c1cnc(C(C)C)[nH]1 [compound 114] | 263 nM | – | > 2.5 mg/kg | – | – |
| Cc1nc2c(N3CCOCC3)nccn2c1-c1cnn(CC2CCCO2)c1 (single isomer, unassigned) [compound 90] | 135 nM | – | > 2.5 mg/kg | – | – |
| c1cn2c(-c3ccc(C4CCOCC4)nc3)c(C3CC3)nc2c(N2CCOCC2)n1 [compound 83] | 115 nM | – | > 2.5 mg/kg | – | – |
| CC(=O)CCn1cc(-c2c(C)nc3c(N4CCOCC4)nccn23)cn1 [compound 36, 4-[4-(2-Methyl-8-morpholin-4-yl-imidazo[1,2-a]pyrazin-3-yl)-pyrazol-1-yl]-butan-2-one] | 138 nM | 3.1 mg/kg | – | – | – |
| Cc1nc2c(N3CCOCC3)nccn2c1-c1cnn(CCF)c1 [compound 96] | 141 nM | 5 mg/kg | – | – | – |
| Cc1nc2c(N3CCOCC3)nccn2c1-c1cnn(CC2CCCO2)c1 (single isomer, unassigned) [compound 71] | 95.5 nM | 5 mg/kg | – | – | – |
| COCCCn1cc(-c2c(C)nc3c(-c4ccncc4)nccn23)cn1 [compound 102] | 166 nM | 5 mg/kg | – | – | – |
| Cc1nc2c(N3CCOCC3)nccn2c1-c1cnn(Cc2ccccc2Cl)c1 [compound 94] | – | – | > 2.5 mg/kg | 6.86 | – |

| Structure (SMILES) | IC50 [1] | ED50 ([2]; read-out: APO ED50) | ED50 [2, 3] | PDE10A2 pIC50 [1] | ED50 ([2]; po, * compound was not soluble and was tested orally as a suspension, read-out: APO ED50) |
| --- | --- | --- | --- | --- | --- |
| CCC(COC)n1cc(-c2c(C)nc3c(N4CCOCC4)nccn23)cn1 (centres unmarked) [compound 111] | 219 nM | – | > 2.5 mg/kg | – | – |
| COCCn1cc(-c2c(C#N)nc3c(N4CCOCC4)nccn23)cn1 [compound 40, 3-[1-(2-Methoxy-ethyl)-1H-pyrazol-4-yl]-8-morpholin-4-yl-imidazo[1,2-a]pyrazine-2-carbonitrile] | – | 5 mg/kg | – | 7.07 | – |
| COCCc1ccc(-c2cnc3c(N4CCOCC4)nccn23)cn1 [compound 136] | 575 nM | – | > 2.5 mg/kg | – | – |
| Cc1nc2c(N3CCOCC3)nccn2c1-c1cnn(Cc2ccc3ccccc3n2)c1 [compound 112] | – | – | > 2.5 mg/kg | 6.63 | – |
| Cc1nc2c(N3CCOCC3)nccn2c1-c1cnn(CC2CCCCO2)c1 (single isomer, unassigned) [compound 58] | 67.6 nM | – | > 2.5 mg/kg | – | – |
| COC(C)(C)COc1ccc(-c2c(C3CC3)nc3c(N4CCOCC4)nccn23)cn1 [compound 105] | 174 nM | – | > 2.5 mg/kg | – | – |
| Cc1nc2c(N3CCOCC3)nccn2c1-c1ccnc(N2CCOCC2)c1 [compound 91] | 135 nM | – | > 2.5 mg/kg | – | – |
| COCCc1ncc(-c2c(C)nc3c(N4CCOCC4)nccn23)cc1F [compound 17, 3-[5-Fluoro-6-(2-methoxy-ethyl)-pyridin-3-yl]-2-methyl-8-morpholin-4-yl-imidazo[1,2-a]pyrazine] | 275 nM | – | > 2.5 mg/kg | – | – |
| Cc1nc2c(N3CCOCC3)nccn2c1-c1cnn(CC(F)F)c1 [compound 56] | 57.5 nM | – | – | – | 3.1 mg/kg |
| Cc1nc2c(-c3ccncc3)nccn2c1-c1ccc(N2CCOCC2)nc1 [compound 115] | 263 nM | 5 mg/kg | – | – | – |
| Cc1nc2c(N3CCOCC3)nccn2c1-c1coc(CC(C)C)n1 [compound 41, 3-(2-Isobutyl-oxazol-4-yl)-2-methyl-8-morpholin-4-yl-imidazo[1,2-a]pyrazine] | – | 5 mg/kg | – | – | – |
| COC(C)CCn1cc(-c2c(C)nc3c(N4CCOCC4)nccn23)cn1 (single isomer, unassigned) [compound 61] | 79.4 nM | 5 mg/kg | – | – | – |
| Cc1nc2c(N3CCOCC3)nccn2c1-c1ccnc(CC(C)C)c1 [compound 27, 3-(2-Isobutyl-pyridin-4-yl)-2-methyl-8-morpholin-4-yl-imidazo[1,2-a]pyrazine] | 74.1 nM | – | > 2.5 mg/kg | – | – |
| c1cn2c(-c3ccc(N4CCOCC4)nc3)c(C3CC3)nc2c(N2CCOCC2)n1 [compound 63] | 83.2 nM | – | > 2.5 mg/kg | – | – |
| CCOC(C)(C)c1ccc(-c2c(C)nc3c(N4CCOCC4)nccn23)cn1 [compound 55] | 57.5 nM | – | > 2.5 mg/kg | – | – |
| COCCc1ccc(-c2c(C3CC3)nc3c(N4CCOCC4)nccn23)cn1 [compound 10, 2-Cyclopropyl-3-[6-(2-methoxy-ethyl)-pyridin-3-yl]-8-morpholin-4-yl-imidazo[1,2-a]pyrazine] | – | 1.2 mg/kg | – | – | – |
| CCOCc1ccc(-c2c(C)nc3c(N4CCOCC4)nccn23)cn1 [compound 5, 3-(6-Ethoxymethyl-pyridin-3-yl)-2-methyl-8-morpholin-4-yl-imidazo[1,2-a]pyrazine] | – | – | > 2.5 mg/kg | – | – |
| COCCn1cc(-c2c(C)nc3c(N4CCOCC4)nccn23)cn1 [compound 35, 2-Methyl-3-[1-(2-methoxy-ethyl)-1H-pyrazol-4-yl]-8-morpholin-4-yl-imidazo[1,2-a]pyrazine] | – | 5 mg/kg | – | – | – |
| COCCc1ccc(-c2c(C)nc3c(N4CCOCC4)nccn23)nc1 [compound 31, 3-[5-(2-Methoxy-ethyl)-pyridin-2-yl]-2-methyl-8-morpholin-4-yl-imidazo[1,2-a]pyrazine] | – | – | > 2.5 mg/kg | – | – |
| Cc1nc2c(N3CCOCC3)nccn2c1-c1ccc(N2CCNCC2)nc1 [compound 23, 2-Methyl-8-morpholin-4-yl-3-(6-piperazin-1-yl-pyridin-3-yl)-imidazo[1,2-a]pyrazine] | – | – | > 2.5 mg/kg | – | – |
| Cc1nc2c(N3CCOCC3)nccn2c1-c1ccc(C(C)C)nc1 [compound 107] | – | 5 mg/kg | – | – | – |
